Assay results as given in patent US6720346B2, “Thiazole benzamide derivatives and pharmaceutical compositions for inhibiting cell proliferation” (Agouron Pharmaceuticals, Inc., priority 2001, dated 2004).

Legend:
human CDK4/cyclin D3 = target: T1, human CDK4/cyclin D3 (Homo sapiens, UniProt P11802); test: Inhibition of CDK4/cyclin D retinoblastoma kinase activity (Ki; % inhibition); assay type: biochemical; conditions: at 0.03 μM
T1 construct: made in house; host or cells: insect cells co-infected with baculovirus vectors
Summary of the method: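 Insect-cell-expressed CDK4 with truncated cyclin D3 (1-264), 5 nM, phosphorylating His-tagged Rb fragment (386-928) with 25 μM [32/33P]ATP at pH 7.4, 30 °C, 20 min (60 min for tight binders). Filter capture, phosphorimager read; % inhibition at 30 nM compound, Ki from competitive or tight-binding fits.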

HCT-116 cell line = test: Inhibition of cell growth, MTT tetrazolium salt assay; assay type: cell-based; conditions: for HCT-116 % Inhibition at 0.1 μM: HCT-116, at 0.1 μM; for HCT-116 % Inhibition at 0.25 μM: HCT-116, at 0.25 μM
Summary of the method: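 HCT-116 cells in McCoy's 5A were dosed 4 h after plating with compounds in 0.5% DMSO and grown 3–5 days at 37 °C. Then 0.2 mg/mL MTT was added for 4 h and formazan absorbance read at 540 nm. IC50/IC90 came from semi-log plots against DMSO-only controls.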

CDK2/cyclin A = target: T2, CDK2/cyclin A (Homo sapiens, UniProt P24941); test: Inhibition of CDK2/cyclin A retinoblastoma kinase activity (Ki; % inhibition); assay type: biochemical; conditions: at 0.03 μM
T2 construct: made in house; host or cells: CDK2: insect cells (baculovirus); cyclin A: E. coli
Summary of the method: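 Radiometric filter assay of CDK2/proteolyzed cyclin A (baculovirus-expressed human CDK2, 10 or 19 nM) phosphorylating an Rb fragment with 25 μM [³²P/³³P]ATP in pH 7.4 HEPES, 2% DMSO, at 30 °C for 60 or 75 min under initial-rate conditions. Library compounds screened at 30 nM for % inhibition; apparent Ki from concentration series fit to competitive or tight-binding inhibition equations.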

T1 sequence (P11802 whole entry): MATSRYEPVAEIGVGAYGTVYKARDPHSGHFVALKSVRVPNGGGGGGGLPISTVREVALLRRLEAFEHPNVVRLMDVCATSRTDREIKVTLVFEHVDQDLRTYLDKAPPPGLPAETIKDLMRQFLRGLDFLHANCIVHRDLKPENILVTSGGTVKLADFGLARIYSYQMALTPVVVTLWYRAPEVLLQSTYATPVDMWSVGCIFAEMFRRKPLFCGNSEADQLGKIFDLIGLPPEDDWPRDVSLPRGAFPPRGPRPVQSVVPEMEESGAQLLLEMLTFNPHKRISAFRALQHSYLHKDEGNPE
T1 sequence (P30281 1-264 partner limits assumed): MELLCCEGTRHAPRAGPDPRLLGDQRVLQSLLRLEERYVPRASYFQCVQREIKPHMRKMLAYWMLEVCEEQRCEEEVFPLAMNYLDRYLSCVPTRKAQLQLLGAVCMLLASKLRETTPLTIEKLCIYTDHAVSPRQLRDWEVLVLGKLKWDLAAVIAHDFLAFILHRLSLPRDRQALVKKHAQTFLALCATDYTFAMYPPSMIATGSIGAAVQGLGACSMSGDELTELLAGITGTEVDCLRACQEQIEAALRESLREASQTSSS

SMILES	CDK4 % Inhibition at 0.03 μM (human CDK4/cyclin D3) [%]	HCT-116 % Inhibition at 0.1 μM (HCT-116 cell line) [%]	HCT-116 % Inhibition at 0.25 μM (HCT-116 cell line) [%]	CDK2 % Inhibition at 0.03 μM (CDK2/cyclin A) [%]	HCT-116 % Inhibition at 0.1 μM (HCT-116 cell line; 0.1 µM) [%]	HCT-116 % Inhibition at 0.25 μM (HCT-116 cell line; 0.25 µM) [%]
Nc1nc(Nc2ccc(C(=O)Nc3ccc4c(c3)S(=O)(=O)NC4=O)cc2)sc1C(=O)c1c(F)cccc1F [Example G101]	19	10	46	11	–	–
CC(C)C(CO)NC(=O)c1ccc(Nc2nc(N)c(C(=O)c3c(F)cccc3F)s2)cc1 (stereo not drawn) [Example G102]	18	18	55	−3	–	–
COCC(C)NC(=O)c1ccc(Nc2nc(N)c(C(=O)c3c(F)cccc3F)s2)cc1 (stereo not drawn) [Example G103]	5	21	59	−2	–	–
Nc1nc(Nc2ccc(C(=O)NCC(O)c3ccccc3)cc2)sc1C(=O)c1c(F)cccc1F (stereo not drawn) [Example G104]	14	38	91	8	–	–
Nc1ccc(CCNC(=O)c2ccc(Nc3nc(N)c(C(=O)c4c(F)cccc4F)s3)cc2)cc1 [Example G105]	9	24	67	3	–	–
COC(=O)c1cccc(NC(=O)c2ccc(Nc3nc(N)c(C(=O)c4c(F)cccc4F)s3)cc2)c1 [Example G106]	7	0	61	7	–	–
Cc1cc(NC(=O)c2ccc(Nc3nc(N)c(C(=O)c4c(F)cccc4F)s3)cc2)ccc1C(C)C [Example G107]	12	5	59	−5	–	–
CSCCC(O)NC(=O)c1ccc(Nc2nc(N)c(C(=O)c3c(F)cccc3F)s2)cc1 (stereo not drawn) [Example G108]	12	0	60	−5	–	–
CC(CO)NC(=O)c1ccc(Nc2nc(N)c(C(=O)c3c(F)cccc3F)s2)cc1 (stereo not drawn) [Example G109]	22	–	–	6	0	54
CC(O)CNC(=O)c1ccc(Nc2nc(N)c(C(=O)c3c(F)cccc3F)s2)cc1 (stereo not drawn) [Example G110]	17	0	52	15	–	–
Cc1ccc(CCNC(=O)c2ccc(Nc3nc(N)c(C(=O)c4c(F)cccc4F)s3)cc2)cc1 [Example G111]	20	0	52	15	–	–
CC1CC(NC(=O)c2ccc(Nc3nc(N)c(C(=O)c4c(F)cccc4F)s3)cc2)CC(C)(C)C1 (stereo not drawn) [Example G112]	13	6	57	−11	–	–
Nc1nc(Nc2ccc(C(=O)NCCOc3ccccc3)cc2)sc1C(=O)c1c(F)cccc1F [Example G113]	43	26	80	51	–	–
CCOC(=O)/C=C/c1ccc(NC(=O)c2ccc(Nc3nc(N)c(C(=O)c4c(F)cccc4F)s3)cc2)cc1 [Example G114]	11	0	48	−3	–	–
Nc1nc(Nc2ccc(C(=O)Nc3ccc4c(c3)S(=O)(=O)C=C4)cc2)sc1C(=O)c1c(F)cccc1F [Example G115]	24	30	88	27	–	–
